In ChEMBL document CHEMBL3045687, “Anti-microbial benzimidazole derivatives: synthesis and in vitro biological evaluation” (2012):

Key:
Assay type in all cases: functional
Candida albicans = test: Antimicrobial activity against Candida albicans assessed as zone of inhibition at 25 ug/ml after 48 hr by two-fold dilution technique relative to control
Staphylococcus aureus = test: Antimicrobial activity against Staphylococcus aureus assessed as zone of inhibition at 12.5 ug/ml after 18 to 24 hr by two-fold dilution technique relative to control
Escherichia coli = test: Antimicrobial activity against Escherichia coli assessed as zone of inhibition at 12.5 ug/ml after 18 to 24 hr by two-fold dilution technique relative to control

| SMILES | inhibition at 25 µg/mL (Candida albicans) [%] | inhibition at 12.5 µg/mL (Staphylococcus aureus) [%] | inhibition at 12.5 µg/mL (Escherichia coli) [%] | zone of inhibition at 25 µg/mL (Candida albicans; read-out: DIZ) [mm] | zone of inhibition at 12.5 µg/mL (Staphylococcus aureus; read-out: DIZ) [mm] | zone of inhibition at 12.5 µg/mL (Escherichia coli; read-out: DIZ) [mm] |
| --- | --- | --- | --- | --- | --- | --- |
| COc1ccc(/C=C/c2nc3cc(Cl)ccc3[nH]2)cc1OC | 92.4 | 75.2 | 80.5 |  |  |  |
| COc1ccc(/C=C/c2nc3cc(Cl)ccc3[nH]2)c(OC)c1OC | 93.1 | 72.7 | 80.5 |  |  |  |
| O=[N+]([O-])c1ccc2[nH]c(/C=C/c3ccc(O)cc3)nc2c1 | 75 | 72.1 | 76.9 |  |  |  |
| O=[N+]([O-])c1ccc2[nH]c(/C=C/c3ccc(Cl)cc3)nc2c1 | 84.2 | 82.1 | 80.7 |  |  |  |
| COc1ccc(/C=C/c2nc3cc([N+](=O)[O-])ccc3[nH]2)c(OC)c1OC | 82.5 | 75.2 | 76.6 |  |  |  |
| Oc1ccc(/C=C/c2nc3cc(Cl)ccc3[nH]2)cc1 | 75.6 | 70.8 | 79.9 |  |  |  |
| O=[N+]([O-])c1ccc(/C=C/c2nc3cc([N+](=O)[O-])ccc3[nH]2)cc1 | 75.3 | 69.7 | 77.1 |  |  |  |
| Clc1ccc2[nH]c(/C=C/c3ccccc3)nc2c1 | 88.5 | 76.2 | 77.7 |  |  |  |
| OC(Cn1cncn1)(Cn1cncn1)c1ccc(F)cc1F [FLUCONAZOLE] |  |  |  | 13.4 |  |  |
| O=C(O)c1cn(C2CC2)c2cc(N3CCNCC3)c(F)cc2c1=O [CIPROFLOXACIN] |  |  |  |  | 14.4 | 15.9 |
